Source: patent publication US20250009716A1, “NOVEL INHIBITORS OF CLAUDIN-1 FOR THERAPEUTIC INTERVENTIONS” (BOARD OF REGENTS OF THE UNIVERSITY OF NEBRASKA, priority 2021, published 2025)

What was measured:
[1] = Cell survival assay of three inhibitors (FIG. 2B); format: cell-based
Procedure: (A) In-silico 3D-structure of claudin-1, cavities that can be targeted by small molecules were defined using Molegro Virtual Docker. (B) Cell survival assay showing effects of three different inhibitors (I1, I2 and 16). […] (C) Effect of 16 treatment (72 hours) upon resistance to anoikis in claudin-1 overexpressing SW480 cells and claudin-1 deficient HCT116 cells. (D) Effect of 16 treatment on cell invasion in SW480claudin-1 cells. (E) Effect of inhibitor 16 on xenograft tumors. Tumors were induced for two weeks after which 16 was injected i.p (10 mg/kg). Effect on tumor growth was monitored.

[2] = Metabolic stability in mouse liver S9 fractions; format: in vitro ADME
Procedure: To determine the in vivo characteristics of this drug, a pharmacokinetic and tissue distribution study on 16 was performed. Following a single i.v. dose of 16 (1 mg/kg) in mice (C57B/16; n=5), serial blood samples were obtained at 0.08, 0.25, 0.75, 2, 4, 6, 8 and 24 hours after the injection and plasma samples were analyzed for 16 concentrations. Pharmacokinetic parameter values were obtained from the plasma concentration-time data using standard non-compartmental methods (WinNonlin, PharSight Corp). […] To assess the tissue distribution of 16, mice were sacrificed at 2, 8 and 24 hours after the i.v. administration of the drug. Measurable concentrations of 16 were detected in all studied tissues at 2, 8, and 24 h. […] Next, metabolic stability studies of 16 was evaluated using mouse liver S9 fractions for the in vitro assessment of phase I and II metabolism. […] Testosterone, 7-HC and diclofenac were used as positive controls, ensuring proper incubation conditions were maintained. […]
Metabolic stability and reaction phenotyping: The in vitro metabolic stability of studies was determined using mice and human liver microsomes and S9 fractions (XenoTech, LLC, Lenexa, KS, USA) following standard protocols (33, 35, 36). […] Drug concentrations were determined using LC-MS/MS. […] UGTs are analyzed in Corning® Supersomes™ if incubation of HLMs with UDPGA also results in metabolite formation.

[3] = system: Claudin-1 deficient HCT116 cells; assay: Resistance to anoikis in claudin-1 deficient cells (negative control); format: cell-based
Source text: The crystal structure of claudin-1 is unknown. Therefore, an in-silico protein folding program, YASARA, was used to identify an effective claudin-1 inhibitor. The resultant 3D-structure was then modeled using Molegro Virtual Docker (MVD) software program. These in-silico analyses identified putative cavities in the claudin-1 protein that can be targeted by small molecule inhibitors. Next, a 100K library of small molecules was screened in silico using the MVD. The top 10 inhibitors that bound to the Site #3 (targeting near c-terminal domain; the most accessible pocket; FIG. 2A) with the best binding energies were selected as hits and used for further testing. Screening of these inhibitors named Inihibitor-1 (1-1) to Inhibitor-10 (I-10) was done using SW480claudin-1, SW620 and control cells. Claudin-1 deficient HCT116 cells (WT-APC) or SW620shRNAcld-1 were used as negative controls. Resistance to anoikis and cell invasion was used as biological end-points in testing these inhibitors. […]

[4] = Pharmacokinetics after single i.v. dose; format: in vivo, mice
Procedure: To determine the in vivo characteristics of this drug, a pharmacokinetic and tissue distribution study on 16 was performed. Following a single i.v. dose of 16 (1 mg/kg) in mice (C57B/16; n=5), serial blood samples were obtained at 0.08, 0.25, 0.75, 2, 4, 6, 8 and 24 hours after the injection and plasma samples were analyzed for 16 concentrations. Pharmacokinetic parameter values were obtained from the plasma concentration-time data using standard non-compartmental methods (WinNonlin, PharSight Corp). […] To assess the tissue distribution of 16, mice were sacrificed at 2, 8 and 24 hours after the i.v. administration of the drug. Measurable concentrations of 16 were detected in all studied tissues at 2, 8, and 24 h. […] Next, metabolic stability studies of 16 was evaluated using mouse liver S9 fractions for the in vitro assessment of phase I and II metabolism. […] Testosterone, 7-HC and diclofenac were used as positive controls, ensuring proper incubation conditions were maintained. […] The results of these in vitro drug metabolism studies guided the rational development of 16 structural analogs.
Pharmacokinetic parameter values were estimated from the plasma concentration-time data using standard noncompartmental methods and software (WinNonlin, PharSight Corp). […] Terminal elimination half-life (t1/2) was calculated by dividing 0.693 by terminal elimination rate constant Iz. Drug clearance (Cl) was calculated using standard equations. Area under the plasma concentration-time curve from 0 to 24 hours (AUCO-24) was calculated with the linear-log trapezoidal rule. The area under the plasma concentration-time curve from 0 to infinity (AUCO-infinity) was calculated as AUCO-24+C24/Iz. The absolute bioavailability (F) was calculated as the ratio between the AUCO-infinity from oral and intravenous routes using standard equations (FIG. 39).

[5] = Blood urea nitrogen (BUN) toxicity measurement; set-up: species or system mice; conditions: mouse, in vivo
Source text: Data are expressed as means±SEM (n=5 mice/group).

SW480claudin-1 cells = assay: Soft agar colony formation assay; format: cell-based
Source text: (§1) To this end, a library of molecules was synthesized in order to develop an initial SAR evaluation. The first compounds tested eliminated the acylated (thio) urea as well as the napthyl group and evaluated just the urea/phenyl compounds (Compounds 1-6). The methoxy group of the naphthalene ring system was needed when the benzimidazole group was present (16 vs. Compound 8). […] The result of metabolic stability was expressed as the percentage of drug remaining at each time. […] To further determine the effect of PDS-0330 on p-Src expression and association, cells were treated with Compound 1, 16 and PDS-0330. Expression and association with p-Src was unaffected with Compound 1 (negative control). The specificity of PDS-0330 for CLDN1 was further confirmed by treating SW480^CLDN1, HCT116^CLDN2 (overexpressing another tight junction protein) or normal IEC-6 cells with PDS-0330 (FIG. 12).

[6] = system: claudin-1 overexpressed patient-derived xenograft; assay: Patient-derived xenograft (PDX) tumors; format: in vivo, nude mice; conditions: 5 mg/kg and 10 mg/kg
Procedure: Representative images of tumors from the vehicle and PDS-0330 (5 mg/kg and 10 mg/kg)-treated claudin-1 overexpressed PDX implanted nude mice.
Tumor volume was measured using calipers over time (n=5 mice per group). The formation of flank xenograft tumors in claudin-1 overexpressed PDX implanted nude mice was examined between vehicle and PDS-0330 (5 mg/kg and 10 mg/kg) treatment (n=5 mice per group). For graphs, data represent mean±SD; *, P<0.05; **, P<0.01; ***, P<0.001 & ****, P<0.0001.
Establishment of fresh patient derived xenograft (PDX) with tumors from the operating room. Human patient colon cancers were excised under standard sterile conditions. Initially, tumor fragments were implanted subcutaneously within 30 min of patient surgery over the right and left upper and lower flanks in nude mice. Subcutaneous tumors were allowed to grow for 2-4 weeks until large enough to supply adequate tumor for orthotopic implantation for PDOX models.

HCT116CLDN2 cells = assay: Cell viability, specificity for CLDN1; format: cell-based; conditions: cells overexpressing another tight junction protein
Procedure: SW480^claudin-1, IEC-6 (normal cells), and HCT116^CLDN2 cells were treated with different concentrations of PDS-0330 and cell viability was determined.
as §1

## COc1cc2ccccc2cc1C(=O)NC(=S)Nc1ccc(-c2nc3ccccc3[nH]2)cc1 [Compound 16]
[1]
  effect on cell survival, compared among I1, I2 and 16: most effective
[2]
  primary metabolites identified: acetylation and hydroxylation with subsequent glucuronidation
[2]; after 60 minutes, phase I and II metabolism
  drug remaining: 30%
[3]
  effect on HCT116 cells: remained unaffected
[4]; 1 mg/kg i.v.
  clearance: 13 mL/min/kg
  time up to which detectable in plasma: up to 24 hrs
[4]; 1 mg/kg i.v., plasma
  peak concentration: 798 ng/mL
[4]; 24 hours after single i.v. injection
  mouse behavior or weight: no change in mouse behavior or weight
[4]; C57B/16, mouse, iv, 1 mg/kg i.v., plasma
  AUC: 1210 ng·h/mL
[4]; C57B/16, mouse, plasma, iv, 1 mg/kg i.v., read-out: elimination t1/2 (converted)
  half-life: 7 h
[4]; C57B/16, mouse, plasma, iv, 1 mg/kg i.v., read-out: volume of distribution
  Vd: 8.4 L/kg

## O=C(NC(=S)Nc1ccc(-c2nc3ccccc3o2)cc1)c1ccc2ccccc2c1 [PDS-0330]
[5]
  cytotoxic effect by blood urea nitrogen (BUN): no cytotoxic effect in mice
SW480claudin-1 cells
  effect on soft agar colony formation: significantly inhibited
[6]
  tumor formation: inhibits tumor formation
HCT116CLDN2 cells
  effect on cell viability: not affected
